What was measured:
[1] = system: patients with moderate-to-severe CD; conditions: week 24 of intervention; cited from earlier work
[2] = system: biopsy samples from patients with IBD; test: Cytokine profiles of patient biopsy cultures in response to treatment with various agents (Example 2); type: cell-based, human
Description: From each patient, intestinal mucosal biopsies were minced into several pieces and distributed in 8 wells of a 96-well plate in 250 μl of Dulbecco's Modified Eagle Medium (DMEM) supplemented with 10% FBS and antibiotic-antimycotic (Life Technologies, CA). Half of the cultures were treated with infliximab (REMICADE®; 0.5 mg/ml; Janssen Biotech, Inc, NJ) and the plate was incubated at 37° C. in a humidified chamber of 95% O2/5% CO2 for 18 hours. Culture supernatants were collected, filtered and stored at −80° C. […] Signal detection and analysis was performed by MAGPIX® (Luminex Corporation, TX).
[…] with 0.5 mg/ml infliximab (an anti-TNFα antibody; therapeutic agent), 100 μM tofacitinib (a Janus kinase (JAK) inhibitor) and an experimental drug (at 10 μM concentration) in accordance with the protocol described above. Following treatment, biopsy samples were obtained and analyzed for cytokine profiles using […].
Additional similar experiments were conducted for different patients using the same or different therapeutic agents, and the results are shown in FIG. 5D-5H.

| SMILES | Mucosal healing rates [1] | cytokines with levels significantly elevated ([2]; 100 μM, non-responder group (FIG. 5B)) | cytokines with attenuation in levels ([2]; 100 μM, non-responders (FIG. 5B)) | cytokines with levels significantly attenuated ([2]; 100 μM, responders (FIG. 5B)) | changes in cytokine profile ([2]; patient ID 13-394 (FIG. 5E)) | ex vivo response of patient ([2]; patient ID 13-394 (FIG. 5E)) |
| --- | --- | --- | --- | --- | --- | --- |
| Cn1cnc([N+](=O)[O-])c1Sc1ncnc2nc[nH]c12 [azathioprine] | 16.5% | – | – | – | – | – |
| C[C@@H]1CCN(C(=O)CC#N)C[C@@H]1N(C)c1ncnc2[nH]ccc12 [tofacitinib] | – | IL-12p40, IL-12p70, IL-13, IL-17A, IL-2, IL-4, IL-5, and IL-7 | MCP-1 and TNFα | IL-6, IL-8, MCP-1, and TNFα | three cytokine expression down-regulation | ex vivo responder |

Source: patent US10458996B1, “Methods for determining clinical response to TNF-alpha and/or JAK inhibitors in subjects with inflammatory diseases” (Beth Israel Deaconess Medical Center, Inc., priority 2016, dated 2019)
